One assay deals with IL-6. The assay can be described thus: Mouse IL6 quantification assay, LPS-stimulated RAW 264.7 macrophages. The settings on record: RAW264.7, 30 μM, LPS-stimulated RAW 264.7 macrophages. In kind it is cell-based. Here is the method: (§1) Cell lines: Abelson murine leukemia virus transformed macrophage cell line RAW 264.7 was purchased from ATCC and grown in complete DMEM-High Glucose medium supplemented with penicillin (100 U/mL), streptomycin (100 μg/mL), and 10% heat-inactivated FBS at 37° C. in a humidified incubator with 5% CO2.
(§2) Method: Cells were plated at 25000-40000 cells/well density in a 96-well plate. After a 3-hour incubation, macrophages were starved with DMEM plus 0.5% FBS overnight. The next day the small molecules to be tested were added to the cells in the final concentration of 30 μM (with 0.3% DMSO) 3 hours prior to LPS stimulation (100 ng/ml). After LPS stimulation cells were incubated at 37° C. for 16 h. Alternatively, compounds were also tested at 10 μM and LPS (100 ng/ml) was added concurrently and incubated 5 hours at 37° C. At the end of the incubation periods, culture medium was collected and production of LPS-induced TNF-α and IL-6 cytokine was measured using ELISA detection kits.
(§3) Sandwich ELISA: The ELISA Immunoassays Quantikine Mouse TNF-alpha (catalog number MTA00B) and IL6 (catalog number M6000B) were purchased from R&D Systems Inc., Minneapolis, MN. These 4.5 hours solid phase ELISAs were used to measure mouse TNF-α or IL-6 levels in macrophages culture supernatants. Assays were executed according to the manufacturer specifications.

For the next assay, the system named is TNF-α. The experiment in a line: Mouse TNF alpha quantification assay, LPS-stimulated RAW 264.7 macrophages. In kind it is cell-based. The settings on record: RAW264.7, 30 μM, LPS-stimulated RAW 264.7 macrophages. Here is the method:
as §1, §2, §3

Inhibition data for 47 compounds are collected here from patent US20250296938A1, “Compounds that Interact with the Ras Superfamily for the Treatment of Cancers, Inflammatory Diseases, Rasopathies, and Fibrotic Disease” (SHY Therapeutics, LLC, priority 2018, published 2025).

Take `Oc1nc(-c2ncc3ccccn23)nc2c(-c3ccccn3)csc12` [drawing 673]: the inhibition at 30 µM in the assay on IL-6 and with TNF-α was 76 to 100% in each case.
For `Oc1nc(-c2cn3cccnc3n2)nc2c(-c3ccccn3)csc12` [drawing 674], the inhibition at 30 µM with IL-6 and in the assay on TNF-α was 0% in each case.
As to `Oc1nc(-c2cn(-c3ccccc3)cn2)nc2c(-c3ccccn3)csc12` [drawing 675], the inhibition – broadly, the drop in the measured response relative to a control, in per cent – at 30 µM in the assay with IL-6 is 76 to 100%; with TNF-α, 0%.
Consider `COc1ccc(Cn2cnc(-c3nc(O)c4scc(-c5ccccn5)c4n3)c2)cc1` [drawing 676], for which the inhibition at 30 µM is 76 to 100% with IL-6 and 1 to 25% with TNF-α.
The matching figures for `COCCCNc1nc(-c2nccn2C)nc2sc(-c3ccn(C)n3)c(-c3ccccc3)c12` [drawing 677]: 76 to 100% and 76 to 100%.
`COCCCN(C)c1nc(-c2nccn2C)nc2sc(-c3ccn(C)n3)c(-c3ccccc3)c12` [drawing 678]: the inhibition at 30 µM in the assay on IL-6 was 1 to 25%; with TNF-α, 51 to 75%.
Turning to `COCC(C)Nc1nc(-c2nccn2C)nc2sc(-c3ccn(C)n3)c(-c3ccccc3)c12` (stereo not shown) [drawing 679], the inhibition at 30 µM with IL-6 and in the assay on TNF-α was 76 to 100% each time.
Turning to `COC1CCN(c2nc(-c3nccn3C)nc3sc(-c4ccn(C)n4)c(-c4ccccc4)c23)C1` (stereo not shown) [drawing 680], the inhibition at 30 µM in the assay with IL-6 was 26 to 50%; with TNF-α, 1 to 25%.
The matching figures for `Cn1ccc(-c2sc3nc(-c4nccn4C)nc(NC4CCOCC4)c3c2-c2ccccc2)n1` [drawing 681]: 26 to 50% and 1 to 25%.
The like results for `Cn1ccc(-c2sc3nc(-c4nccn4C)nc(NCC4CCOC4)c3c2-c2ccccc2)n1` (stereo not shown) [drawing 682] were, in that order, 76 to 100% and 76 to 100%.
As for `CO[C@H]1CCC(Nc2nc(-c3nccn3C)nc3sc(-c4ccn(C)n4)c(-c4ccccc4)c23)C1` (stereo partly shown) [drawing 683], the inhibition at 30 µM with IL-6 and with TNF-α was 76 to 100% each time.
Regarding `CO[C@@H]1CCC(Nc2nc(-c3nccn3C)nc3sc(-c4ccn(C)n4)c(-c4ccccc4)c23)C1` (stereo partly shown) [drawing 684], the inhibition at 30 µM with IL-6 and with TNF-α was 76 to 100% each time.
Turning to `COCC1CCN(c2nc(-c3nccn3C)nc3sc(-c4ccn(C)n4)c(-c4ccccc4)c23)C1` (stereo not shown) [drawing 685], the inhibition at 30 µM in the assay on IL-6 and in the assay with TNF-α was 76 to 100% each time.
On to `Cn1ccc(-c2sc3nc(-c4nccn4C)nc(N4CCC5(CCOC5)C4)c3c2-c2ccccc2)n1` (stereo not shown) [drawing 686], for which the figures for the inhibition at 30 µM with IL-6 and in the assay on TNF-α were 51 to 75% and 0%, respectively.
The like results for `COC1CCN(c2nc(-c3nccn3C)nc3sc(-c4ccn(C)n4)c(-c4ccccc4)c23)CC1` [drawing 687] were, in that order, 26 to 50% and 26 to 50%.
The like results for `COCCCNc1nc(-c2nccn2C)nc2sc(-c3ccn(C)n3)c(-c3ccc(OC)cc3)c12` [drawing 688] were, in that order, 76 to 100% and 0%.
The matching figures for `COCC(C)Nc1nc(-c2nccn2C)nc2sc(-c3ccn(C)n3)c(-c3ccc(OC)cc3)c12` (stereo not shown) [drawing 689]: 76 to 100% and 0%.
With `COc1ccc(-c2c(-c3ccn(C)n3)sc3nc(-c4nccn4C)nc(N4CCC(OC)C4)c23)cc1` (stereo not shown) [drawing 690], the inhibition at 30 µM is 1 to 25% with IL-6 and 0% with TNF-α.
For `COCC(C)Nc1nc(-c2nccn2C)nc2sc(-c3ccccc3Cl)c(-c3cscn3)c12` (stereo not shown) [drawing 691], the inhibition at 30 µM with IL-6 and with TNF-α was 76 to 100% each time.
On to `COC1CCN(c2nc(-c3nccn3C)nc3sc(-c4ccccc4Cl)c(-c4cscn4)c23)C1` (stereo not shown) [drawing 692], for which the results for the inhibition at 30 µM in the assay on IL-6 and in the assay on TNF-α were 51 to 75% and 0%, respectively.
On to `COCC(C)Nc1nc(-c2nccn2C)nc2sc(-c3cccc(OC)c3)c(-c3cscn3)c12` (stereo not shown) [drawing 693], for which the inhibition at 30 µM in the assay on IL-6 and in the assay on TNF-α was 26 to 50% in each case.
Regarding `COc1cccc(-c2sc3nc(-c4nccn4C)nc(N4CCC(OC)C4)c3c2-c2cscn2)c1` (stereo not shown) [drawing 694], the inhibition at 30 µM in the assay on IL-6 and in the assay on TNF-α was 1 to 25% each time.
For `COCCNc1nc(-c2nccn2C)nc2sc(-c3ccccc3Cl)c(-c3ccc(OC)cc3)c12` [drawing 695], the inhibition at 30 µM in the assay on IL-6 was 26 to 50%; in the assay on TNF-α it was 0%.
The matching figures for `COCCNc1nc(-c2nccn2C)nc2sc(-c3cccc(OC)c3)c(-c3ccc(OC)cc3)c12` [drawing 696]: 76 to 100% and 76 to 100%.
Take `COCCNc1nc(-c2nccn2C)nc2sc(-c3cccc(OC)c3Cl)c(-c3ccc(OC)cc3)c12` [drawing 697]: the inhibition at 30 µM in the assay with IL-6 is 26 to 50%; with TNF-α, 0%.
On to `COCCNc1nc(-c2nccn2C)nc2sc(-c3cc(OC)ccc3Cl)c(-c3ccc(OC)cc3)c12` [drawing 698], for which the inhibition at 30 µM with IL-6 fell in the range of 51 to 75%; in the assay with TNF-α, 26 to 50%.
The like results for `COCCNc1nc(-c2cn(C)cn2)nc2sc(-c3ccccc3Cl)c(-c3ccc(OC)cc3)c12` [drawing 699] were, in that order, 76 to 100% and 76 to 100%.
The like results for `COCCNc1nc(-c2nccn2C)nc2sc(-c3cccc(OC)c3Cl)c(-c3ccccc3)c12` [drawing 700] were, in that order, 76 to 100% and 76 to 100%.
The like results for `COCCNc1nc(-c2nccn2C)nc2sc(-c3cc(OC)ccc3Cl)c(-c3ccccc3)c12` [drawing 701] were, in that order, 51 to 75% and 1 to 25%.
For `COc1cc(-c2sc3nc(-c4nccn4C)nc(N4CCC(OC)C4)c3c2-c2ccccc2)ccn1` (stereo not shown) [drawing 702], the inhibition at 30 µM in the assay with IL-6 and in the assay with TNF-α was 76 to 100% each time.
In the case of `COC1CCN(c2nc(-c3nccn3C)nc3sc(-c4ccnn4C)c(-c4ccccc4)c23)C1` (stereo not shown) [drawing 703], the inhibition at 30 µM is 26 to 50% in the assay with IL-6 and 0% in the assay on TNF-α.
`COC1CCN(c2nc(-c3nccn3C)nc3sc(-c4cccnc4)c(-c4ccccc4)c23)C1` (stereo not shown) [drawing 704]: the inhibition at 30 µM with IL-6 and in the assay with TNF-α was 76 to 100% throughout.
On to `COc1ccc(-c2sc3nc(-c4nccn4C)nc(N4CCC(OC)C4)c3c2-c2ccccc2)cn1` (stereo not shown) [drawing 705], for which the inhibition at 30 µM in the assay on IL-6 and in the assay on TNF-α was 76 to 100% each time.
In the case of `COc1ncccc1-c1sc2nc(-c3nccn3C)nc(N3CCC(OC)C3)c2c1-c1ccccc1` (stereo not shown) [drawing 706], the inhibition at 30 µM in the assay on IL-6 and with TNF-α was 76 to 100% throughout.
With `COC1CCN(c2nc(-c3nccn3C)nc3sc(-c4cnc(C5CC5)o4)c(-c4ccccc4)c23)C1` (stereo not shown) [drawing 707], the inhibition at 30 µM was 76 to 100% in the assay on IL-6 and 26 to 50% in the assay with TNF-α.
As for `COCCn1cc(-c2sc3nc(-c4nccn4C)nc(N4CCC(OC)C4)c3c2-c2ccccc2)cn1` (stereo not shown) [drawing 708], the inhibition at 30 µM with IL-6 and in the assay with TNF-α was 76 to 100% in each case.
As for `COC1CCN(c2nc(-c3nccn3C)nc3sc(-c4ccncc4C)c(-c4ccccc4)c23)C1` (stereo not shown) [drawing 709], the inhibition at 30 µM in the assay on IL-6 lay in the range of 76 to 100%; with TNF-α, 26 to 50%.
The matching figures for `COC1CCN(c2nc(-c3nccn3C)nc3sc(-c4cnn(C)c4)c(-c4ccccc4)c23)C1` (stereo not shown) [drawing 710]: 26 to 50% and 51 to 75%.
Take `COC1CCN(c2nc(-c3nccn3C)nc3sc(-c4ccc(CO)cc4)c(-c4ccccc4)c23)C1` (stereo not shown) [drawing 711]: the inhibition at 30 µM with IL-6 and in the assay on TNF-α was 76 to 100% in each case.
With `COC1CCN(c2nc(-c3nccn3C)nc3sc(-c4ccc(N)nc4C)c(-c4ccccc4)c23)C1` (stereo not shown) [drawing 712], the inhibition at 30 µM is 1 to 25% with IL-6 and 0% with TNF-α.
Regarding `COC1CCN(c2nc(-c3nccn3C)nc3sc(-c4ccccc4CO)c(-c4ccccc4)c23)C1` (stereo not shown) [drawing 713], the inhibition at 30 µM in the assay on IL-6 and in the assay with TNF-α was 76 to 100% throughout.
For `COc1nscc1-c1sc2nc(-c3nccn3C)nc(N3CCC(OC)C3)c2c1-c1ccccc1` (stereo not shown) [drawing 714], the inhibition at 30 µM with IL-6 and in the assay on TNF-α was 76 to 100% throughout.
With `COC1CCN(c2nc(-c3nccn3C)nc3sc(-c4ccnc(N(C)C)c4)c(-c4ccccc4)c23)C1` (stereo not shown) [drawing 715], the inhibition at 30 µM with IL-6 and in the assay with TNF-α was 76 to 100% in each case.
For `COC1CCN(c2nc(-c3nccn3C)nc3sc(Br)c(-c4ccccc4)c23)C1` (stereo not shown) [drawing 716], the inhibition at 30 µM was in the range of 51 to 75% with IL-6 and 26 to 50% in the assay with TNF-α.
In the case of `COc1ccc(-c2c(-c3cccc(OC)c3F)sc3nc(-c4nccn4C)nc(N4CCC(OC)C4)c23)cc1` (stereo not shown) [drawing 717], the inhibition at 30 µM with IL-6 and in the assay with TNF-α was 76 to 100% throughout.
`COCC1CN(c2nc(-c3nccn3C)nc3sc(-c4cccc(OC)c4F)c(-c4ccc(OC)cc4)c23)C1` [drawing 718]: the inhibition at 30 µM in the assay on IL-6 and in the assay on TNF-α was 76 to 100% in each case.
Consider `COc1cccc(-c2sc3nc(-c4nccn4C)nc(N4CCC(OC)C4)c3c2-c2ccccc2)c1F` (stereo not shown) [drawing 719], for which the inhibition at 30 µM with IL-6 and with TNF-α was 76 to 100% each time.
